{
  "source": "patent US12297235B2",
  "about": "“Synthetic peptide compounds and methods of use” (REALTA HOLDINGS, LLC, priority 2015, dated 2025)",
  "note": "Square brackets hold non-standard residues; d marks the D form. Peptide text beside a SMILES is read from it. PEG24 = NCCOCCOCCOCCOCCOCCOCCOCCOCCOCCOCCOCCOCCOCCOCCOCCOCCOCCOCCOCCOCCOCCOCCOCCOCCC(=O)O; Sar = CNCC(=O)O",
  "data": [
    {"assay": "Solubility in water", "type": "physicochemical", "details": "Table 7, PEGylated and Sar/Ala substitution peptides", "values": [
      {"compound": "CC[C@H](C)[C@H](N)C(=O)N[C@@H](C)C(=O)N[C@@H](CC(C)C)C(=O)N[C@H](C(=O)N[C@@H](CC(C)C)C(=O)N[C@@H](CCC(=O)O)C(=O)N1CCC[C@H]1C(=O)N[C@H](C(=O)N(C)CC(=O)N[C@@H](CS)C(=O)N[C@@H](CCC(N)=O)C(=O)N[C@@H](CCC(=O)O)C(=O)N(C)CC(=O)N[C@@H](C)C(=O)N[C@@H](C)C(=O)O)[C@@H](C)CC)[C@@H](C)CC", "note": "[Peptide R13SarC9Sar] (H-IALILEPI[Sar]CQE[Sar]AA-OH)", "Solubility in water": "No"},
      {"compound": "CC[C@H](C)[C@H](N)C(=O)N[C@@H](C)C(=O)N[C@@H](CC(C)C)C(=O)N[C@H](C(=O)N[C@@H](CC(C)C)C(=O)N(C)CC(=O)N(C)CC(=O)N[C@H](C(=O)N[C@@H](CS)C(=O)N[C@@H](CS)C(=O)N[C@@H](CCC(N)=O)C(=O)N[C@@H](CCC(=O)O)C(=O)N[C@@H](CCCNC(=N)N)C(=O)N[C@@H](C)C(=O)N[C@@H](C)C(=O)O)[C@@H](C)CC)[C@@H](C)CC", "note": "[Peptide E6SarP7Sar] (H-IALIL[Sar][Sar]ICCQERAA-OH; N-terminus and C-terminus assumed)", "Solubility in water": "Yes"},
      {"compound": "CC[C@H](C)[C@H](N)C(=O)N[C@@H](C)C(=O)N[C@@H](CC(C)C)C(=O)N[C@H](C(=O)N[C@@H](CC(C)C)C(=O)N[C@@H](CCC(=O)O)C(=O)N(C)CC(=O)N[C@H](C(=O)N[C@@H](CS)C(=O)N[C@@H](CS)C(=O)N[C@@H](CCC(N)=O)C(=O)N[C@@H](CCC(=O)O)C(=O)N(C)CC(=O)N[C@@H](C)C(=O)N[C@@H](C)C(=O)O)[C@@H](C)CC)[C@@H](C)CC", "note": "[Peptide R13SarP7Sar, IALILE(Sar)ICCQE(Sar)AA] (H-IALILE[Sar]ICCQE[Sar]AA-OH)", "Solubility in water": "No"},
      {"compound": "CC[C@H](C)[C@H](N)C(=O)N[C@@H](C)C(=O)N[C@@H](CC(C)C)C(=O)N[C@H](C(=O)N[C@@H](CC(C)C)C(=O)N[C@@H](C)C(=O)N(C)CC(=O)N[C@H](C(=O)N[C@@H](CS)C(=O)N[C@@H](CS)C(=O)N[C@@H](CCC(N)=O)C(=O)N[C@@H](C)C(=O)N[C@@H](CCCNC(=N)N)C(=O)N[C@@H](C)C(=O)N[C@@H](C)C(=O)O)[C@@H](C)CC)[C@@H](C)CC", "note": "[Peptide E6AE12AP7Sar] (H-IALILA[Sar]ICCQARAA-OH; N-terminus and C-terminus assumed)", "Solubility in water": "Yes"},
      {"compound": "CC[C@H](C)[C@H](N)C(=O)N[C@@H](C)C(=O)N[C@@H](CC(C)C)C(=O)N[C@H](C(=O)N[C@@H](CC(C)C)C(=O)N[C@@H](CCC(=O)O)C(=O)N1CCC[C@H]1C(=O)N[C@H](C(=O)N(C)CC(=O)N[C@@H](CCC(N)=O)C(=O)N[C@@H](CCC(=O)O)C(=O)N[C@@H](CCCNC(=N)N)C(=O)N[C@@H](C)C(=O)N[C@@H](C)C(=O)O)[C@@H](C)CC)[C@@H](C)CC", "note": "[PA-C9SarD10] (H-IALILEPI[Sar]QERAA-OH)", "Solubility in water": "Yes"},
      {"compound": "CC[C@H](C)[C@H](N)C(=O)N[C@@H](C)C(=O)N[C@@H](CC(C)C)C(=O)N[C@H](C(=O)N[C@@H](CC(C)C)C(=O)N[C@@H](CCC(=O)O)C(=O)N1CCC[C@H]1C(=O)N[C@H](C(=O)N[C@@H](CS)C(=O)N[C@@H](CS)C(=O)N(C)CC(=O)N[C@@H](CCC(=O)O)C(=O)N[C@@H](CCCNC(=N)N)C(=O)N[C@@H](C)C(=O)N[C@@H](C)C(=O)NCCOCCOCCOCCOCCOCCOCCOCCOCCOCCOCCOCCOCCOCCOCCOCCOCCOCCOCCOCCOCCOCCOCCOCCOCCC(=O)O)[C@@H](C)CC)[C@@H](C)CC", "note": "[PA-Q11Sar-dPEG24]", "Solubility in water": "Yes"},
      {"compound": "CC[C@H](C)[C@H](N)C(=O)N[C@@H](C)C(=O)N[C@@H](CC(C)C)C(=O)N[C@H](C(=O)N[C@@H](CC(C)C)C(=O)N(C)CC(=O)N1CCC[C@H]1C(=O)N[C@H](C(=O)N[C@@H](CS)C(=O)N[C@@H](CS)C(=O)N[C@@H](CCC(N)=O)C(=O)N[C@@H](CCC(=O)O)C(=O)N[C@@H](CCCNC(=N)N)C(=O)N[C@@H](C)C(=O)N[C@@H](C)C(=O)NCCOCCOCCOCCOCCOCCOCCOCCOCCOCCOCCOCCOCCOCCOCCOCCOCCOCCOCCOCCOCCOCCOCCOCCOCCC(=O)O)[C@@H](C)CC)[C@@H](C)CC", "note": "[PA-E6Sar-dPEG24]", "Solubility in water": "Yes"},
      {"compound": "CC[C@H](C)[C@H](N)C(=O)N[C@@H](C)C(=O)N[C@@H](CC(C)C)C(=O)N[C@H](C(=O)N[C@@H](CC(C)C)C(=O)N[C@@H](CCC(=O)O)C(=O)N1CCC[C@H]1C(=O)N[C@H](C(=O)N[C@@H](CS)C(=O)N[C@@H](CS)C(=O)N[C@@H](CCC(N)=O)C(=O)N[C@@H](CCC(=O)O)C(=O)N[C@@H](CCCNC(=N)N)C(=O)N(C)CC(=O)N[C@@H](C)C(=O)NCCOCCOCCOCCOCCOCCOCCOCCOCCOCCOCCOCCOCCOCCOCCOCCOCCOCCOCCOCCOCCOCCOCCOCCOCCC(=O)O)[C@@H](C)CC)[C@@H](C)CC", "note": "[PA-A14Sar-dPEG24]", "Solubility in water": "Yes"},
      {"compound": "CC[C@H](C)[C@H](N)C(=O)N[C@@H](C)C(=O)N[C@@H](CC(C)C)C(=O)N[C@H](C(=O)N[C@@H](CC(C)C)C(=O)N[C@@H](C)C(=O)N1CCC[C@H]1C(=O)N[C@H](C(=O)N(C)CC(=O)N[C@@H](CS)C(=O)N[C@@H](CCC(N)=O)C(=O)N[C@@H](C)C(=O)N[C@@H](CCCNC(=N)N)C(=O)N[C@@H](C)C(=O)N[C@@H](C)C(=O)O)[C@@H](C)CC)[C@@H](C)CC", "note": "[Peptide E6AE12AC9Sar] (H-IALILAPI[Sar]CQARAA-OH)", "Solubility in water": "No"},
      {"compound": "CC[C@H](C)[C@H](N)C(=O)N[C@@H](C)C(=O)N[C@@H](CC(C)C)C(=O)N[C@H](C(=O)N[C@@H](CC(C)C)C(=O)N[C@@H](CCC(=O)O)C(=O)N1CCC[C@H]1C(=O)N[C@H](C(=O)N(C)CC(=O)N[C@@H](CS)C(=O)N(C)CC(=O)N[C@@H](CCC(=O)O)C(=O)N[C@@H](CCCNC(=N)N)C(=O)N[C@@H](C)C(=O)N[C@@H](C)C(=O)O)[C@@H](C)CC)[C@@H](C)CC", "note": "[Peptide Q11SarC9Sar] (H-IALILEPI[Sar]C[Sar]ERAA-OH)", "Solubility in water": "Yes"},
      {"compound": "CC[C@H](C)[C@H](N)C(=O)N[C@@H](C)C(=O)N[C@@H](CC(C)C)C(=O)N[C@H](C(=O)N[C@@H](CC(C)C)C(=O)N[C@@H](CCC(=O)O)C(=O)N1CCC[C@H]1C(=O)N[C@H](C(=O)N[C@@H](CS)C(=O)N[C@@H](CS)C(=O)N[C@@H](CCC(N)=O)C(=O)N[C@@H](CCC(=O)O)C(=O)N(C)CC(=O)N[C@@H](C)C(=O)N[C@@H](C)C(=O)NCCOCCOCCOCCOCCOCCOCCOCCOCCOCCOCCOCCOCCOCCOCCOCCOCCOCCOCCOCCOCCOCCOCCOCCOCCC(=O)O)[C@@H](C)CC)[C@@H](C)CC", "note": "[PA-R13Sar-dPEG24]", "Solubility in water": "Yes"},
      {"compound": "CC[C@H](C)[C@H](N)C(=O)N[C@@H](C)C(=O)N[C@@H](CC(C)C)C(=O)N[C@H](C(=O)N[C@@H](CC(C)C)C(=O)N[C@@H](CCC(=O)O)C(=O)N1CCC[C@H]1C(=O)N[C@H](C(=O)N(C)CC(=O)N[C@@H](C)C(=O)N[C@@H](CCC(N)=O)C(=O)N[C@@H](CCC(=O)O)C(=O)N[C@@H](CCCNC(=N)N)C(=O)N[C@@H](C)C(=O)N[C@@H](C)C(=O)O)[C@@H](C)CC)[C@@H](C)CC", "note": "[PA-C9SarC10A] (H-IALILEPI[Sar]AQERAA-OH)", "Solubility in water": "Yes"},
      {"compound": "CC[C@H](C)[C@H](N)C(=O)N[C@@H](C)C(=O)N[C@@H](CC(C)C)C(=O)N[C@H](C(=O)N[C@@H](CC(C)C)C(=O)N(C)CC(=O)N1CCC[C@H]1C(=O)N[C@H](C(=O)N(C)CC(=O)N[C@@H](CS)C(=O)N[C@@H](CCC(N)=O)C(=O)N[C@@H](CCC(=O)O)C(=O)N[C@@H](CCCNC(=N)N)C(=O)N[C@@H](C)C(=O)N[C@@H](C)C(=O)O)[C@@H](C)CC)[C@@H](C)CC", "note": "[Peptide E6SarC9Sar, IALIL(Sar)PI(Sar)CQERAA] (H-IALIL[Sar]PI[Sar]CQERAA-OH)", "Solubility in water": "Yes"},
      {"compound": "CC[C@H](C)[C@H](N)C(=O)N[C@@H](C)C(=O)N[C@@H](CC(C)C)C(=O)N[C@H](C(=O)N[C@@H](CC(C)C)C(=O)N[C@@H](CCC(=O)O)C(=O)N(C)CC(=O)N[C@H](C(=O)N(C)CC(=O)N[C@@H](CS)C(=O)N[C@@H](CCC(N)=O)C(=O)N[C@@H](CCC(=O)O)C(=O)N[C@@H](CCCNC(=N)N)C(=O)N[C@@H](C)C(=O)N[C@@H](C)C(=O)O)[C@@H](C)CC)[C@@H](C)CC", "note": "[PA-P7SarC9Sar, IALILE(Sar)I(Sar)CQERAA] (H-IALILE[Sar]I[Sar]CQERAA-OH)", "Solubility in water": "Yes"},
      {"compound": "CC[C@H](C)[C@H](N)C(=O)N[C@@H](C)C(=O)N[C@@H](CC(C)C)C(=O)N[C@H](C(=O)N[C@@H](CC(C)C)C(=O)N[C@@H](C)C(=O)N1CCC[C@H]1C(=O)N[C@H](C(=O)N[C@@H](CS)C(=O)N[C@@H](CS)C(=O)N[C@@H](CCC(N)=O)C(=O)N[C@@H](C)C(=O)N[C@@H](CCCNC(=N)N)C(=O)N[C@@H](C)C(=O)N[C@@H](C)C(=O)NCCOCCOCCOCCOCCOCCOCCOCCOCCOCCOCCOCCOCCOCCOCCOCCOCCOCCOCCOCCOCCOCCOCCOCCOCCC(=O)O)[C@@H](C)CC)[C@@H](C)CC", "note": "[E6AE12A-dPEG24] (H-IALILAPICCQARAA[PEG24]-OH)", "Solubility in water": "Yes"},
      {"compound": "CC[C@H](C)[C@H](N)C(=O)N[C@@H](C)C(=O)N[C@@H](CC(C)C)C(=O)N[C@H](C(=O)N[C@@H](CC(C)C)C(=O)N[C@@H](CCC(=O)O)C(=O)N1CCC[C@H]1C(=O)N[C@H](C(=O)N(C)CC(=O)N[C@@H](CS)C(=O)N[C@@H](CCC(N)=O)C(=O)N[C@@H](CCC(=O)O)C(=O)N[C@@H](CCCNC(=N)N)C(=O)N(C)CC(=O)N[C@@H](C)C(=O)O)[C@@H](C)CC)[C@@H](C)CC", "note": "[Peptide A14SarC9Sar] (H-IALILEPI[Sar]CQER[Sar]A-OH)", "Solubility in water": "No"},
      {"compound": "CC[C@H](C)[C@H](N)C(=O)N[C@@H](C)C(=O)N[C@@H](CC(C)C)C(=O)N[C@H](C(=O)N[C@@H](CC(C)C)C(=O)N[C@@H](CCC(=O)O)C(=O)N(C)CC(=O)N[C@H](C(=O)N[C@@H](CS)C(=O)N[C@@H](CS)C(=O)N(C)CC(=O)N[C@@H](CCC(=O)O)C(=O)N[C@@H](CCCNC(=N)N)C(=O)N[C@@H](C)C(=O)N[C@@H](C)C(=O)O)[C@@H](C)CC)[C@@H](C)CC", "note": "[Peptide Q11SarP7Sar, IALILE(Sar)ICC(Sar)ERAA] (H-IALILE[Sar]ICC[Sar]ERAA-OH; N-terminus and C-terminus assumed)", "Solubility in water": "Yes"}
    ]}
  ]
}
